Legend:
glutaminyl cyclase (QC) = glutaminyl cyclase (QC) (Homo sapiens, UniProt Q16769); assay: QC inhibitor assay (fluorometric/spectrophotometric QC activity assay with inhibitor added)
glutaminyl cyclase (QC), sequence (Q16769 29-361): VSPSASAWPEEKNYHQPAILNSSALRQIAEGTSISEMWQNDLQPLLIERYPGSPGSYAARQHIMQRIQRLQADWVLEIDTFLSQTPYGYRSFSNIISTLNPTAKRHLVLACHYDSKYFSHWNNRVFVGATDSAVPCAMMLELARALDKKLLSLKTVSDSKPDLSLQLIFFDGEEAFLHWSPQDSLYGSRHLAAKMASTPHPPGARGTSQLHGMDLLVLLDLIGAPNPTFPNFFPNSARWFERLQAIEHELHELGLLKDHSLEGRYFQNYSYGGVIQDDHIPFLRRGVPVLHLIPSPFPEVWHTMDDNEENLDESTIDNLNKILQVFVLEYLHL
Method: All measurements were performed with a BioAssay Reader HTS-7000Plus for microplates (Perkin Elmer) at 30° C. QC activity was evaluated fluorometrically using H-Gln-βNA. The samples consisted of 0.2 mM fluorogenic substrate, 0.25 U pyroglutamyl aminopeptidase (Unizyme, Hørsholm, Denmark) in 0.2 M Tris/HCl, pH 8.0 containing 20 mM EDTA and an appropriately diluted aliquot of QC in a final volume of 250 μl. Excitation/emission wavelengths were 320/410 nm. The assay reactions were initiated by addition of glutaminyl cyclase. QC activity was determined from a standard curve of β-naphthylamine under assay conditions. One unit is defined as the amount of QC catalyzing the formation of 1 μmol pGlu-βNA from H-Gln-βNA per minute under the described conditions.
In a second fluorometric assay, QC was activity determined using H-Gln-AMC as substrate. Reactions were carried out at 30° C. utilizing the NOVOStar reader for microplates (BMG labtechnologies). The samples consisted of varying concentrations of the fluorogenic substrate, 0.1 U pyroglutamyl aminopeptidase (Qiagen) in 0.05 M Tris/HCl, pH 8.0 containing 5 mM EDTA and an appropriately diluted aliquot of QC in a final volume of 250 μl. Excitation/emission wavelengths were 380/460 nm. The assay reactions were initiated by addition of glutaminyl cyclase. […] The kinetic data were evaluated using GraFit software.
Samples consisted of the respective QC substrate, 0.3 mM NADH, 14 mM α-Ketoglutaric acid and 30 U/ml glutamate dehydrogenase in a final volume of 250 μl. […] All samples were measured at 30° C., using either the [sequence]luor Plus or the Sunrise (both from TECAN) reader for microplates. Kinetic data was evaluated using GraFit software.
For inhibitor testing, the sample composition was the same as described above, except of the putative inhibitory compound added. For a rapid test of QC-inhibition, samples contained 4 mM of the respective inhibitor and a substrate concentration at 1 KM. For detailed investigations of the inhibition and determination of Ki-values, influence of the inhibitor on the auxiliary enzymes was investigated first. […] The inhibitory constant was evaluated by fitting the set of progress curves to the general equation for competitive inhibition using GraFit software.

| IC50 (glutaminyl cyclase (QC)) | Ki (glutaminyl cyclase (QC)) | melting point | Structure (SMILES) |
| --- | --- | --- | --- |
| 13.2 µM | 2.19 µM | – | CCCCN/C(=C/[N+](=O)[O-])NCCCn1ccnc1 [Example 1, N-(3-(1H-imidazol-1-yl)propyl)-N-butyl-2-nitroethene-1.1-diamine] |
| 7.93 µM | 0.95 µM | – | O=[N+]([O-])/C=C(\NCCCn1ccnc1)Nc1ccc2c(c1)OCO2 [Example 9, N-(1-(3-(1H-imidazol-1-yl)propylamino)-2-nitrovinyl)benzo[d][1.3]dioxol-5-amine] |
| 8.89 µM | 0.92 µM | – | COc1ccc(N/C(=C/[N+](=O)[O-])NCCCn2ccnc2)c(OC)c1 [Example 10, N-(1-(3-(1H-imidazol-1-yl)propylamino)-2-nitrovinyl)-2.4-dimethoxy-benzenamine] |
| 6.41 µM | 0.74 µM | 41 to 43 °C | COc1cc(N/C(=C/[N+](=O)[O-])NCCCn2ccnc2)cc(OC)c1OC [Example 11, N-(1-(3-(1H-imidazol-1-yl)propylamino)-2-nitrovinyl)-3.4.5-trimethoxy-benzenamine] |
